# Values joined by “and” are separate entries in the source; they are usually repeats but may differ in a detail not shown here. Equal values may be shown once.
# Test system: 138582-337-R-J1-PDC spheroids with HUVEC/MSC, viability
# Test: Anticancer human tumor 138582-337-R-J1-PDC patient-derived Merkel cell tumor cell line growth inhibition [IpAb]
# Settings: for viability, T/C: stronger effect = lower value
# Description: Combinatorial screen of targeted agents with ipatasertib and abemaciclib in multi-cell type tumor spheroids
# A high-throughput screen of multi-cell type tumor spheroids was designed to identify active combinations of targeted small molecules and ipatasertib or abemaciclib. Complex spheroids include a stromal component modeled by human endothelial cells (HUVEC) and fibroblasts modeled by human mesenchymal stem cells (MSCs). The concentration ranges selected for each drug and investigational agent were based upon clinically achievable concentrations if the clinical Cmax of the agent was known.
# Compounds. The drugs and investigational agents: ipatasertib (NSC767898), abemaciclib(NSC768073), selumetinib (NSC741078), trametinib (758246), adavosertib (NSC754352), everolimus (NSC733504), sapanisertib (NSC764658), vemurafenib (NSC761431), venetoclax (NSC766270), copanlisib (NSC809693), apelisib (NSC765974), palbociblib (NSC758247), vemurafenib (NSC761431), dabrafenib (NSC764134), ravoxertinib (NSC781343), BMS-387032 (NSC767048), sotorasib (NSC818433), talazoparib (NSC767125) and afursertib (NSC778305), were obtained from the National Cancer Institute (NCI) Developmental Therapeutics Program Chemical Repository. The FDA-approved anticancer drug set is available from the NCI Developmental Therapeutics Program. […] The stock solutions were prepared in dimethyl sulfoxide (DMSO, Sigma-Aldrich, St. Louis, MO, cat. D2650) at 800-fold the tested concentration and stored at -70 degrees C prior to their use. All drugs and investigational agents were tested over a range starting from a high concentration at or near the clinical Cmax and decreasing in half-log increments. If the clinical Cmax for an agent had not been determined, the highest concentration tested was 10 microM.
# NCI60 Cell Culture. NCI60 cell lines were obtained from the NCI Developmental Therapeutics Program Tumor Repository. For each lot of cells, the Repository performed Applied Biosystems AmpFLSTR Identifiler testing with PCR amplification to confirm consistency with the published Identifier STR profile for each cell line. Cells were kept in continuous culture for no more than 20 passages. The optimal seeding densities for each of the cell lines at each time point assessed were determined prior to performing the concentration response studies. Briefly, the NCI60 human tumor lines were grown as monolayers in RPMI 1640 medium supplemented with 10% FBS and 2 mmol/L L-glutamine.
# An additional 9 lines were from the NCI60 cell line panel including MDA-MB-231 breast carcinoma, MDA-MB-468 breast carcinoma, MCF7 breast carcinoma, Hs578T breast carcinoma, MALME-3M melanoma, SK-MEL-2 melanoma, SK-OV-3 ovarian carcinoma, DU-145 prostate carcinoma, PC-3 prostate carcinoma, all cell lines along with major genetic alterations are listed on Table 2. Pooled donor human umbilical vein endothelial cells (HUVEC, Lonza, cat. CC-2519) and human mesenchymal stem cells (hMSC, Lonza, cat. PT-2501) were purchased from Lonza (Walkersville, MD).
# PDMR cell lines were grown in complete medium (DC medium): Dulbecco's modified Eagle's medium (DMEM)/F12 supplemented with 5% fetal bovine serum (FBS), 2 mM L-glutamine, 100 U/mL penicillin and 100 µg/ml streptomycin, 0.4 µg/ml hydrocortisone, 10 ng/ml epidermal growth factor (EGF) recombinant human protein, 24 µg/mL adenine, and 0.1 mg/mL primocin. During culture from frozen stock vials, PDMR cells were cultured in the same medium containing 10 µM Y-27632 (see Table 3). The PDCs were cultured in complete DMEM/F12 media without 10 microM Y-27632 dihydrochloride for at least two passages prior to the screen. The pooled donor HUVEC and hMSC were cultured in endothelial cell growth medium 2 (PromoCell, Heidelberg, Germany, cat. C-22011) and mesenchymal stem cell growth medium 2 (PromoCell, cat. C-28009), respectively. For all experiments, HUVEC and hMSC were used at passages </=5.
# […]
# 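Note: spheroids exposed to compounds for seven days.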
# 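Throughout, for viability, T/C: 100% = DMSO vehicle control viability.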
compound,measurement,setting,value
Cc1nc(NC(=O)N2CCCC2C(N)=O)sc1-c1ccnc(C(C)(C)C(F)(F)F)c1 (stereo not given),"viability, T/C",compound 0.0316 µM,97.5% and 84.4%
same,"viability, T/C",compound 0.1 µM,80.2% and 88.7%
same,"viability, T/C",compound 0.316 µM,65.3% and 69.1%
same,"viability, T/C",compound 1 µM,59.3% and 53.7%
same,"viability, T/C",compound 3.16 µM,52.5% and 46.1%
same,"viability, T/C",compound 10 µM,29.6% and 18.7%
same,IC50,curve of compound,2030 nM and 1790 nM
Cn1cnc2c(F)c(Nc3ccc(Br)cc3Cl)c(C(=O)NOCCO)cc21,"viability, T/C",compound 0.00949 µM,112% and 90.1%
same,"viability, T/C",compound 0.03 µM,96.5% and 82.8%
same,"viability, T/C",compound 0.0949 µM,98.2% and 82.7%
same,"viability, T/C",compound 0.3 µM,116% and 84%
same,"viability, T/C",compound 0.949 µM,109% and 97.7%
same,"viability, T/C",compound 3 µM,146% and 106%
same,IC50,curve of compound,> 3000 nM
Cn1ncc(Cl)c1-c1cc(C(=O)NC(CN)Cc2cccc(F)c2)sc1Cl (stereo not given),"viability, T/C",compound 0.0316 µM,89.5% and 99.6%
same,"viability, T/C",compound 0.1 µM,80.9% and 77%
same,"viability, T/C",compound 0.316 µM,86.6% and 67.6%
same,"viability, T/C",compound 1 µM,72.8% and 61.9%
same,"viability, T/C",compound 3.16 µM,66.4% and 46%
same,"viability, T/C",compound 10 µM,0.28% and 0.56%
same,IC50,curve of compound,4050 nM and 1720 nM
Cn1nccc1Nc1nccc(-c2ccn(C(CO)c3ccc(Cl)c(F)c3)c(=O)c2)n1 (stereo not given),"viability, T/C",compound 0.0316 µM,96.2% and 97.2%
same,"viability, T/C",compound 0.1 µM,94.1% and 93.3%
same,"viability, T/C",compound 0.316 µM,106% and 92.3%
same,"viability, T/C",compound 1 µM,109% and 104%
same,"viability, T/C",compound 3.16 µM,124% and 111%
same,"viability, T/C",compound 10 µM,132% and 127%
same,IC50,curve of compound,> 10000 nM
Cn1ncnc1[C@H]1c2n[nH]c(=O)c3cc(F)cc(c23)N[C@@H]1c1ccc(F)cc1,"viability, T/C",compound 0.000316 µM,104% and 97.7%
same,"viability, T/C",compound 0.001 µM,91%
same,"viability, T/C",compound 0.00316 µM,92.1% and 91.5%
same,"viability, T/C",compound 0.01 µM,86.4% and 86.3%
same,"viability, T/C",compound 0.0316 µM,83% and 86.4%
same,"viability, T/C",compound 0.1 µM,89.5% and 79.1%
same,IC50,curve of compound,> 100 nM
Cn1cnc2c(F)c(Nc3ccc(Br)cc3Cl)c(C(=O)NOCCO)cc21 + CC(C)NCC(C(=O)N1CCN(c2ncnc3c2C(C)CC3O)CC1)c1ccc(Cl)cc1,IC50,"curve of first compound, second compound 0.1 µM",> 3000 nM
same,IC50,"curve of first compound, second compound 0.316 µM",1760 nM
same,IC50,"curve of first compound, second compound 1 µM",328 nM
same,IC50,"curve of first compound, second compound 3.16 µM",63.7 nM
same,IC50,"curve of first compound, second compound 10 µM",< 9.49 nM
same,"viability, T/C","second compound 0.1 µM, first compound 0.00949 µM",97.8%
same,"viability, T/C","second compound 0.1 µM, first compound 0.03 µM",88.1%
same,"viability, T/C","second compound 0.1 µM, first compound 0.0949 µM",85.2%
same,"viability, T/C","second compound 0.1 µM, first compound 0.3 µM",83.8%
same,"viability, T/C","second compound 0.1 µM, first compound 0.949 µM",101%
same,"viability, T/C","second compound 0.1 µM, first compound 3 µM",105%
same,"viability, T/C","second compound 0.316 µM, first compound 0.00949 µM",74.9%
same,"viability, T/C","second compound 0.316 µM, first compound 0.03 µM",73.3%
same,"viability, T/C","second compound 0.316 µM, first compound 0.0949 µM",69.6%
same,"viability, T/C","second compound 0.316 µM, first compound 0.3 µM",55%
same,"viability, T/C","second compound 0.316 µM, first compound 0.949 µM",56.6%
same,"viability, T/C","second compound 0.316 µM, first compound 3 µM",46.7%
same,"viability, T/C","second compound 1 µM, first compound 0.00949 µM",58.9%
same,"viability, T/C","second compound 1 µM, first compound 0.03 µM",68.2%
same,"viability, T/C","second compound 1 µM, first compound 0.0949 µM",56%
same,"viability, T/C","second compound 1 µM, first compound 0.3 µM",47.2%
same,"viability, T/C","second compound 1 µM, first compound 0.949 µM",42.4%
same,"viability, T/C","second compound 1 µM, first compound 3 µM",22.4%
same,"viability, T/C","second compound 3.16 µM, first compound 0.00949 µM",57.1%
same,"viability, T/C","second compound 3.16 µM, first compound 0.03 µM",64%
same,"viability, T/C","second compound 3.16 µM, first compound 0.0949 µM",42.5%
same,"viability, T/C","second compound 3.16 µM, first compound 0.3 µM",33.4%
same,"viability, T/C","second compound 3.16 µM, first compound 0.949 µM",27.5%
same,"viability, T/C","second compound 3.16 µM, first compound 3 µM",11.3%
same,"viability, T/C","second compound 10 µM, first compound 0.00949 µM",46.1%
same,"viability, T/C","second compound 10 µM, first compound 0.03 µM",46.7%
same,"viability, T/C","second compound 10 µM, first compound 0.0949 µM",33.6%
same,"viability, T/C","second compound 10 µM, first compound 0.3 µM",24.9%
same,"viability, T/C","second compound 10 µM, first compound 0.949 µM",18.6%
same,"viability, T/C","second compound 10 µM, first compound 3 µM",3.49%
